Values joined by “and” are separate entries in the source; they are usually repeats but may differ in a detail not shown here. Equal entries are not always repeated.
Conditions: Liquid, Calculated from knudsen effusion weight loss

Nc1ccnc(N)n1 [2,4-pyrimidinediamine]
Conditions | vapor or sublimation pressure
335.12 K | 7.78e-05 kPa and 7.75e-05 kPa and 7.72e-05 kPa
338.18 K | 0.000109 kPa and 0.00011 kPa and 0.000105 kPa
341.17 K | 0.00015 kPa and 0.000145 kPa and 0.000141 kPa
344.12 K | 0.000208 kPa and 0.000202 kPa and 0.000212 kPa
347.17 K | 0.000291 kPa and 0.000283 kPa and 0.000274 kPa
350.17 K | 0.000391 kPa and 0.000378 kPa
353.12 K | 0.000554 kPa and 0.000535 kPa and 0.000532 kPa
356.18 K | 0.00074 kPa and 0.000736 kPa and 0.000697 kPa
359.16 K | 0.000989 kPa and 0.000945 kPa and 0.000904 kPa

Nc1cc(N)nc(N)n1 [2,4,6-pyrimidinetriamine]
Conditions | vapor or sublimation pressure
391.14 K | 7.42e-05 kPa and 7.31e-05 kPa and 7.14e-05 kPa
393.15 K | 9.48e-05 kPa and 8.89e-05 kPa and 8.51e-05 kPa
395.15 K | 0.00011 kPa and 0.000107 kPa and 0.0001 kPa
397.13 K | 0.000131 kPa and 0.000124 kPa and 0.000141 kPa
399.13 K | 0.000167 kPa and 0.000166 kPa and 0.000148 kPa
401.15 K | 0.0002 kPa and 0.000188 kPa and 0.000186 kPa
403.15 K | 0.000247 kPa and 0.000237 kPa and 0.000215 kPa
405.15 K | 0.000292 kPa and 0.000287 kPa and 0.000258 kPa
407.15 K | 0.000345 kPa and 0.000316 kPa and 0.000319 kPa
409.12 K | 0.000393 kPa and 0.000407 kPa and 0.000375 kPa
411.12 K | 0.000484 kPa and 0.000487 kPa and 0.000439 kPa
413.15 K | 0.000593 kPa and 0.00054 kPa and 0.000536 kPa

— the NIST ThermoML archive (doi:10.1016/j.jct.2012.05.015)
